The values below come from US12070467B2, “Method of treating ciliated tissue using CSA micelles” (Brigham Young University, priority 2018, dated 2024).

One test relates to P. aeruginosa ATCC 47085. As to the kind of experiment: Minimum inhibitory concentration (MIC), broth microdilution. Format: cell-based, Pseudomonas aeruginosa. Conditions: 37° C., 18-20 h. On the procedure: (§1) Staphylococcus aureus (ATCC 25923) and Pseudomonas aeruginosa (ATCC 47085 (PA01)) were grown from fresh colonies in trypticase soy broth (TSB) and incubated overnight at 37° C. Fungal cultures, Candida albicans (ATCC 90028) and Candida auris (CDC 0382, 0384, 0387, and 0389), were grown overnight in sabouraud dextrose broth (SDB) or Roswell Park Memorial Institute medium (RPMI). Cultures of bacteria and fungi were centrifuged, and pellets were washed three times with phosphate buffered saline (PBS) and further resuspended in fresh PBS. Bacterial cultures were diluted in TSB and fungal cultures were diluted in SDB or RPMI to […] or 10^6 CFU/mL (optical density (OD) readings at 600 nm).
(§2) Minimum inhibitory concentrations (MICs) were measured using the broth microdilution protocol described by the Clinical and Laboratory Standards Institute. […] Aliquots (100 μL) of a prepared inoculum (10^6 CFU/mL for bacteria and […] CFU/mL for fungi) were added, and plates were incubated at 37° C. for 18-20 h. Bacterial or fungal growth was visually observed to determine the MICs. Negative and positive controls were included for each set of MIC measurements. For studies with pluronic, the surfactant was added at 4% and 5% to the initial inocula in each experiment. Measurements were performed in triplicate for all susceptibility tests.

In another test the test system is C. auris CDC 382. The description is as above. Format: cell-based, Candida auris. The conditions noted are these: 37° C., 18-20 h. On the procedure:
as §1, §2

The subject of another test is C. auris CDC 384. Described as above. The conditions noted are these: 37° C., 18-20 h. Format: cell-based, Candida auris. On the procedure: as §1, §2
A further test deals with C. auris CDC 387. The description is as above. The conditions noted are these: 37° C., 18-20 h. Format: cell-based, Candida auris. How it is done: as §1, §2
The next test deals with C. auris CDC 389. The description is as above. Format: cell-based, Candida auris. The conditions noted are these: 37° C., 18-20 h. On the procedure:
as §1, §2

The next test deals with C. albicans ATCC 90028. The description is as above. It counts as cell-based, Candida albicans. The conditions noted are these: 37° C., 18-20 h. On the procedure:
as §1, §2

The test system of test [1] is biofilms of S. aureus (ATCC 25923), P. aeruginosa (ATCC 47085), C. albicans (ATCC 90028), C. auris (CDC 384). The test is described as follows: Antibiofilm colorimetric (XTT) assay, percent survival (FIG. 3). Format: cell-based. Conditions: 24 h, p<0.05 relative to controls. How it is done:
Biofilm formation by selected bacterial and fungal strains was quantified by measuring metabolic activity within biofilms using 2,3-bis-(2-methoxy-4-nitro-5-sulfophenyl)-2H-tetrazolium-5-carboxanilide (XTT). Biofilms were formed in 96-well plates and incubated for 48 h at 37° C. […] After incubation, the wells were carefully washed with PBS. A solution of 10 mM menadione in 100% acetone was added to an XTT solution (0.5 mg/mL) and mixed. An aliquot of the XTT/menadione solution (100 μL) was added to each well. Each plate was then wrapped in aluminum foil and incubated for 2-3 h at 37° C. To prepare to read the optical density, aliquots of the supernatant (70 μL) were removed from each well. Using a microtiter plate reader, colorimetric changes were measured at 490 nm. […] (control). To corroborate the antibiofilm data from counting bacterial and fungal colonies, a colorimetric assay was performed to quantify biofilms remaining on surfaces after treatment. Results were normalized to untreated controls. […] Antibiofilm results determined through colorimetric (XTT) assay represented as percent survival. […]

For a further test, the system named is S. aureus. The test is described as follows: Kinetics of bactericidal activity. It counts as cell-based, Staphylococcus aureus. The conditions noted are these: CSA-131 100 μg/mL, pluronic 4%, data not shown. How it is done: Cultures were incubated at 37° C. At 5, 15, 30, 60, and 120 min, aliquots were removed from each well and added to neutralizing buffer to ensure that no further antibacterial activity occurred. These samples were then serially diluted and plated on TSA or SDA. Cultures were incubated at 37° C. for 24 h or 48 h, and colonies were counted and recorded.
FIG. 4 is a line graph comparing the kinetic antibacterial activity of CSA compositions with micelles compared to a control without CSA. Inocula of just over 10^6 CFU/mL were reduced to the detection limit within 15 min. […] Detection limit was two logs.

Test [2] relates to C. albicans (ATCC 90028) and C. auris (CDC 384) in trachea and lung explants. The test is described as follows: Ex vivo antifungal efficacy in porcine trachea and lung explants (FIGS. 7A, 7B). It counts as cell-based, Candida albicans, Candida auris. Conditions: 24 h. How it is done:
Using 5 mm^3 explant cubes of porcine trachea and lung, ex vivo antifungal efficacy experiments were conducted. Cubes were dissected using a sterile razor blade form the ventral surface of the left caudal lobe of three sets of porcine lungs. After trimming excess tissues away from the explants to produce uniform of size (5 mm), explants were incubated at 37° C. in DMEM/RPMI inoculated with 10^6 CFU/explant of C. auris (CDC 0384) or C. albicans (ATCC 90028) in a 48-well plate. […] Treated explants were incubated for 24 h at 37° C. After incubation, tissues were suspended in 250 μL of neutralizing broth and vortex on the highest setting for 4 min. Samples were then serially diluted in PBS, plated on 5% sheep blood TSA plates, and incubated at 37° C. for 48 h.
FIGS. 7A and 7B are bar graphs comparing the antifungal activity of CSA compositions with and without micelles on fungi, and against a control without any CSA. White bars shown remaining C. albicans (ATCC 90028); black bars show remaining C. auris (CDC 384).

Turning to `CCCCCCCCCCCCNCCC[C@@H](C)[C@H]1CC[C@H]2[C@@H]3[C@H](OCCCN)C[C@@H]4C[C@H](OCCCN)CC[C@]4(C)[C@H]3C[C@H](OCCCN)[C@]12C.Cl.Cl.Cl.Cl` [CSA-131], the MIC – broadly, the least concentration at which growth counts as inhibited – was 2 µg/mL against P. aeruginosa ATCC 47085; 0.5 µg/mL in the test on C. auris CDC 382; 0.5 µg/mL in the test with C. auris CDC 384; 0.5 µg/mL with C. auris CDC 387; 0.5 µg/mL against C. auris CDC 389; 0.5 µg/mL in the test on C. albicans ATCC 90028. Besides, the “Biofilm remaining after treatment (XTT, percent survival vs untreated control)” value in test [1] (CSA-131 100 μg/mL alone) is recorded as “Significant decreases in biofilm”; in [1] (CSA-131 100 μg/mL with pluronic, difference to CSA-131 alone not significant) it was “Significant decreases in biofilm”. For the same molecule, in the test with S. aureus, the “Difference in kinetic activity of the ceragenin alone and with pluronic” value is listed as “no significant differences”. The “Decrease of fungal counts in treated explants vs control explants” value in [2] (CSA-131 alone) was “up to 99%”; in [2] (CSA-131 alone, p<0.05 vs controls), “one and a half to two”; in [2] (CSA-131 with pluronic 4%), “up to 99%”; in test [2] (CSA-131 with pluronic 4%, p<0.05 vs controls), “one and a half to two”; in test [2] (CSA-131 with pluronic 5%) it was “up to 99%”; in test [2] (CSA-131 with pluronic 5%, p<0.05 vs controls) it was “one and a half to two”.
